Converted amounts (≈) assume the structure as drawn. The source made the active and inactive calls. The calls are words filed in the database; no cut-off is given here.

In test [1] the test system is Penicillium chrysogenum. In words: Antimicrobial activity against Penicillium notatum assessed as inhibition of conidia germination after 18 hrs by microdilution method. Format: functional. (In general: Dilution methods test growth across graded concentrations, often in twofold steps.)
Test [2] concerns Bacillus subtilis. In words: Antimicrobial activity against Bacillus subtilis after 18 hrs by microdilution method. Format: functional.
Test [3] concerns Staphylococcus aureus. Description: Antimicrobial activity against Staphylococcus aureus after 18 hrs by microdilution method. Format: functional.
The test system of test [4] is Staphylococcus aureus. In words: Antimicrobial activity against methicillin-resistant Staphylococcus aureus after 18 hrs by microdilution method. Format: functional.
Test [5] deals with Mycolicibacterium vaccae. In words: Antimicrobial activity against Mycobacterium vaccae after 18 hrs by microdilution method. Format: functional.
In test [6] the test system is Enterococcus faecalis. Description: Antimicrobial activity against vancomycin-resistant Enterococcus faecalis after 18 hrs by microdilution method. Format: functional.
The test system of test [7] is Bacillus subtilis. Description: Antimicrobial activity against Bacillus subtilis at 342 uM after 18 hrs by microdilution method. Format: functional, organism-based.
Test [8] has as its system Staphylococcus aureus. In words: Antimicrobial activity against Staphylococcus aureus at 342 uM after 18 hrs by microdilution method. Format: functional, organism-based.
In test [9] the test system is Staphylococcus aureus. In words: Antimicrobial activity against methicillin-resistant Staphylococcus aureus at 342 uM after 18 hrs by microdilution method. Format: functional, organism-based.
Test [10] relates to Mycolicibacterium vaccae. Description: Antimicrobial activity against Mycobacterium vaccae at 342 uM after 18 hrs by microdilution method. Format: functional, organism-based.
The test system of test [11] is Enterococcus faecalis. In words: Antimicrobial activity against vancomycin-resistant Enterococcus faecalis at 342 uM after 18 hrs by microdilution method. Format: functional, organism-based.
Test [12] relates to Penicillium chrysogenum. In words: Antimicrobial activity against Penicillium notatum assessed as inhibition of conidia germination at 342 uM after 18 hrs by microdilution method. Format: functional, organism-based.

`C[C@@H]1[C@H](O)[C@@H](C)/C=C/C=C/C=C/C=C/C=C/C=C/C=C/[C@H](O[C@@H]2O[C@H](C)[C@@H](O)[C@H](N)[C@@H]2O)C[C@@H]2O[C@](O)(C[C@@H](O)C[C@@H](O)[C@H](O)CC[C@@H](O)C[C@@H](O)CC(=O)O[C@H]1C)C[C@H](O)[C@H]2C(=O)O` [AMPHOTERICIN B]: the MIC in the test on Penicillium chrysogenum [1] worked out at 0.4 µg/mL.
Turning to `O=C(O)C1=C(c2ccccc2)/C(=C/c2ccccc2)C(=O)O1`, the MIC against Bacillus subtilis [2] was 5.3 µM; in the test with Staphylococcus aureus [3], 5.3 µM (≈ 1.55 µg/mL); with Staphylococcus aureus [4], 5.3 µM (≈ 1.55 µg/mL); in the test on Mycolicibacterium vaccae [5], 10.6 µM; in the test on Enterococcus faecalis [6] it was 21.2 µM; in the test with Penicillium chrysogenum [1] it was 42.4 µM.
Take `O=C1OCC(c2ccccc2)=C1C(O)c1ccccc1` (stereo unspecified): the outcome in the test with Bacillus subtilis [7], in the test with Staphylococcus aureus [8], in the test with Staphylococcus aureus [9], in the test with Mycolicibacterium vaccae [10], with Enterococcus faecalis [11] and in the test with Penicillium chrysogenum [12] was inactive.
On to `O=C(O)c1cn(C2CC2)c2cc(N3CCNCC3)c(F)cc2c1=O` [CIPROFLOXACIN], for which the MIC is < 0.05 µg/mL in the test on Bacillus subtilis [2], 0.2 µg/mL against Mycolicibacterium vaccae [5] and 1.56 µg/mL against Enterococcus faecalis [6].

What is called MIC is the lowest concentration that inhibits growth of the organism.

Values taken from ChEMBL document CHEMBL3351437, “Ralfuranone Is Produced by an Alternative Aryl-Substituted γ-Lactone Biosynthetic Route in Ralstonia solanacearum” (2014).
